Columns and labels:
[1] = tested on: basophils in human whole blood (CD63 expression); assay: 384-Well HTBS Whole Blood CD63 Basophil Assay (25% blood); assay type: cell-based; conditions: for IC50: comparison table with known compounds, human whole blood basophils, head prints IC50; for EC50: human whole blood (25% blood), anti-FceRI mAb activation, CD63 on CCR3 positive cells
Procedure: Syk activity was assessed in relation to reduced activation of basophils as measured by the expression of CD63 in a human whole blood basophil cellular assay (25% blood). Basophil activation was measured in human whole blood using the Flow CAST kit (Buhlmann Laboratories AG, Baselstrasse, Switzerland) following the protocol provided by the manufacturer with minor modifications. Fresh human whole blood in heparin was collected and delivered same day (AllCells, Emeryville, Calif.). Whole blood samples were incubated with either DMSO (1% final) or serial diluted compounds in DMSO for 60 minutes at 37° C. Basophils were activated using the anti-FceRI mAb and stained with anti-CD63-FITC and anti-CCR3-PE for 20 minutes at 37° C. (per well: 50 μL of whole blood was mixed with 113 μL of stimulation buffer, 8.5 μL anti-FceRI mAb, 8.5 μL Ab stain CCR3-PE/CD63-FITC). Cells were centrifuged at 1000×g for 18 minutes and 150 μL/well of supernatant removed. Red blood cells were lysed and cells fixed by 2 rounds of cell lysing: resuspending cell pellets with 150 μL/well 1× lysis buffer, incubating at room temperature for 10 minutes, and collecting cell pellets by centrifuging for 1200 rpms for 5 minutes. Cells were washed with 150 µL/well wash buffer twice, and resuspended in a final volume of 75 µL/well of wash buffer for either immediate flow cytometery analysis or overnight incubation at 4° C. followed by flow cytometry analysis. Degranulation (basophil activation) was detected by CD63 surface expression on CCR3 positive cells. The percent CD63 positive cells within the gated basophil population were determined and normalized to the DMSO (negative control) and control compound (positive control).

human hepatocytes = assay: Human Hepatocyte Stability Assay (predicted hepatocyte clearance); assay type: in vitro ADME
Procedure: The human […] stability of the compounds as predicted hepatocyte clearance in L/hr/kg was assessed. Compounds to be tested were diluted to 200 μM (4 μl of 10 mM DMSO stock into 196 μl ACN:H2O (50:50). Propranolol was used as a positive control, and buffer only without hepatocytes as 0% control. These were further diluted 4 μl with 891 μl KHB buffer (InVitroGRO catalog number Z99074) to provide 2× dosing solution. To each well of 24 well plate, 250 μl of the 2× dosing solution was added to each well with 250 μl of hepatocytes cells (1×10^6 viable cells/ml per well) or KHB for control samples to achieve a final compound concentration of 1 μM during incubation. The final solvent concentration was 0.01% DMSO and 0.25% ACN. The culture plate was placed on a rocker and incubated at 37° C., 5% CO2. Samples were collected at time 0, 1, 3, and 6 hours. The loss of parent compound was determined using LC-MS methods against a standard curve.

[2] = comparison table with known compounds, predicted hepatocyte clearance (L/hr/kg)
[3] = predicted hepatocyte clearance, human hepatocytes, 1 μM compound, 0-6 hours

| Structure (SMILES) | IC50 [1] [nM] | EC50 [1] [nM] | Hheps CL (human hepatocytes; [2]) [L/h/kg] | Hheps CL (human hepatocytes; [3]) [L/h/kg] |
| --- | --- | --- | --- | --- |
| Nc1cncc(-c2cn3ccnc3c(Nc3ccc(N4CCN(CC(CO)CO)CC4)cc3)n2)n1 [Ex.-6, 2-((4-(4-((6-(6-aminopyrazin-2-yl)imidazo[1,2-a]pyrazin-8-yl)amino)phenyl)piperazin-1-yl)methyl)propane-1,3-diol] | 128 | 128 | 0.08 | 0.08 |
| Cc1c(-c2cncc(N)n2)nc(Nc2ccc(N3CCN(C4COC4)CC3)cc2)c2nccn12 [Ex.-4, 6-(6-aminopyrazin-2-yl)-5-methyl-N-(4-(4-(oxetan-3-yl)piperazin-1-yl)phenyl)imidazo[1,2-a]pyrazin-8-amine] | 157 | 157 | 0.08 | 0.08 |
| Nc1cncc(-c2cn3ccnc3c(Nc3ccc(N4CCN(C5COC5)CC4)c(OCCO)c3)n2)n1 [Ex.-5, 2-(5-((6-(6-aminopyrazin-2-yl)imidazo[1,2-a]pyrazin-8-yl)amino)-2-(4-(oxetan-3-yl)piperazin-1-yl)phenoxy)ethanol] | 120 | 120 | 0.07 | 0.07 |
| Nc1cncc(-c2cn3ccnc3c(Nc3ccc(N4CCO[C@@H](CO)C4)cc3)n2)n1 [Ex.-3, (R)-(4-(4-((6-(6-aminopyrazin-2-yl)imidazo[1,2-a]pyrazin-8-yl)amino)phenyl)morpholin-2-yl)methanol] | 63 | 63 | 0.09 | 0.09 |

Now from value to molecule:

| IC50 [1] [nM] | EC50 [1] [nM] | Hheps CL (human hepatocytes; [2]) [L/h/kg] | Hheps CL (human hepatocytes; [3]) [L/h/kg] | Structure (SMILES) |
| --- | --- | --- | --- | --- |
| 809 | – | 0.24 | – | COc1ccc(Nc2nc(-c3cccc(N)c3)cn3ccnc23)cc1OC [6-(3-aminophenyl)-N-(3,4-dimethoxyphenyl)imidazo[1,2-a]pyrazin-8-amine, reference compound] |
| 250 | – | 0.80 | – | Cc1ncc(-c2cn3ccnc3c(Nc3ccc(N4CCOCC4)cc3)n2)cc1N [6-(5-amino-6-methylpyridin-3-yl)-N-(4-morpholinophenyl)imidazo[1,2-a]pyrazin-8-amine, reference compound] |
